# Tested on: T1, garlic peroxidase (Allium sativum peroxidase)
# T1 construct: gene class III plant peroxidase; native, partially purified from peeled garlic (ammonium sulphate, dialysis, Sephadex G-200)
# Test: absorbance change on o-dianisidine oxidation; Lineweaver-Burk plot
# Assay type: biochemical
# Conditions: co-substrate H2O2; 0.05 M sodium phosphate pH 6.0; 20-120 mM o-dianisidine; partially purified enzyme
smiles,measurement,value
COc1cc(-c2ccc(N)c(OC)c2)ccc1N [o-dianisidine],Km,25 mM

# From paper PMC4226186, “Biobleaching of Industrial Important Dyes with Peroxidase Partially Purified from Garlic” (The Scientific World Journal, 2014)
